Patent publication US20180370912A1, “COMPOUNDS AND METHODS FOR TREATING DISEASES MEDIATED BY PROTEIN DISULFIDE ISOMERASE” (Beth Israel Deaconess Medical Center, Inc., priority 2017, published 2018)

Key:
[1] = molecular target: T1, PDI fragments abb′ and b′xa′ (Homo sapiens, UniProt P07237); experiment: Di-eosin-GSSG reductase assay of PDI fragments; assay type: biochemical; settings: 30 μM, FIG. 5a
T1 construct: abb′ (residues 1-331), or b′xa′ (residues 219-462); His; made in house; host or cells: Escherichia coli Origami B (DE3), pET-15b
Description: (§1) The probe di-eosin glutathione disulfide, di-eosin-GSSG, was prepared as previously described in Raturi, A., Vacratsis, P. O., Seslija, D., Lee, L. & Mutus, B., Biochem J 391, 351-357 (2005). Reductase activity of purified thiol isomerases and PDI domains was monitored in a 96-well fluorescence plate format. PDI, AGHA-PDI, ERpS, ERp57, ERp72 and PDI domains were assayed at 50 nM in the presence or absence of the indicated small molecules, peptides or cathepsin G. The assay included 100 mM potassium phosphate (pH 7.4) containing 2 mM EDTA, 5 μM DTT and 150 nM of the di-eosin GSSG probe. The increase in fluorescence was determined for 20 minutes by excitation at 520 nm and emission at 550 nm in a Synergy Biotek 4. The reduction of 150 nM di-eosin-GSSG by 5 μM DTT in the presence or absence of mentioned small molecules, peptides or proteins served as a negative control.

[2] = molecular target: T2, ERp5 (Homo sapiens, UniProt Q15084); experiment: Di-eosin-GSSG disulfide reductase assay; assay type: biochemical
T2 construct: recombinant His-tagged full-length ERp5, ERp72 and PDI domain fragments; His; made in house; host or cells: Escherichia coli Origami B (DE3), pET-15b
T2 sequence (Q15084 20-440): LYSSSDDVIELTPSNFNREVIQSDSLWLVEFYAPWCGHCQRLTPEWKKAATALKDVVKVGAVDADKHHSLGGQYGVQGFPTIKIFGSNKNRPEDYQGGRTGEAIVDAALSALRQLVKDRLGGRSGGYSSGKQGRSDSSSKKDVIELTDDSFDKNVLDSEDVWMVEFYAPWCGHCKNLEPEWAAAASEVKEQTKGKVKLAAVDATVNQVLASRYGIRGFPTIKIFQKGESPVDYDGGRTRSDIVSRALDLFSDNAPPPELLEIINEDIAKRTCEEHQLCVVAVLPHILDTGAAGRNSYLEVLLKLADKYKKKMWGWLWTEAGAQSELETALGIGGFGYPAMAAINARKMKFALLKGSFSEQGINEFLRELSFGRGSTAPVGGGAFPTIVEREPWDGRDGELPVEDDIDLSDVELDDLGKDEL
Description: as §1

[3] = molecular target: T3, ERp57 (Homo sapiens, UniProt P30101); experiment: Di-eosin-GSSG disulfide reductase assay; assay type: biochemical
T3 construct: FLAG; made in house; host or cells: Escherichia coli Origami B (DE3), pET-15b
T3 sequence (P30101 25-505): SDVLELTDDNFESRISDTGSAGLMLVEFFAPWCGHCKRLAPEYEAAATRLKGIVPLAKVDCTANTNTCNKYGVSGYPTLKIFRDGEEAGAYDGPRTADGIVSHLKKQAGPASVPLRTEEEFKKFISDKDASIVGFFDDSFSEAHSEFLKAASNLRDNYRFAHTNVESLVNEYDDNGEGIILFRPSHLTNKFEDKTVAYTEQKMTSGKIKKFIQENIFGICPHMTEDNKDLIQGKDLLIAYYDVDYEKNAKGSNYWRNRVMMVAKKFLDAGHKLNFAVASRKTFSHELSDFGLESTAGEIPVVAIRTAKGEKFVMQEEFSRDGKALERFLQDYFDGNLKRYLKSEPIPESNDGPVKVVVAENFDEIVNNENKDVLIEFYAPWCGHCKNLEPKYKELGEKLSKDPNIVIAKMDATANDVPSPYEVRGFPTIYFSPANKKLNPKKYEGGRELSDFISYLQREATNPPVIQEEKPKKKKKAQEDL
Description: as §1

[4] = molecular target: T4, ERp72 (Homo sapiens, UniProt P13667); experiment: Di-eosin-GSSG disulfide reductase assay; assay type: biochemical
T4 construct: recombinant His-tagged full-length ERp5, ERp72 and PDI domain fragments; His; made in house; host or cells: Escherichia coli Origami B (DE3), pET-15b
T4 sequence (P13667 21-645): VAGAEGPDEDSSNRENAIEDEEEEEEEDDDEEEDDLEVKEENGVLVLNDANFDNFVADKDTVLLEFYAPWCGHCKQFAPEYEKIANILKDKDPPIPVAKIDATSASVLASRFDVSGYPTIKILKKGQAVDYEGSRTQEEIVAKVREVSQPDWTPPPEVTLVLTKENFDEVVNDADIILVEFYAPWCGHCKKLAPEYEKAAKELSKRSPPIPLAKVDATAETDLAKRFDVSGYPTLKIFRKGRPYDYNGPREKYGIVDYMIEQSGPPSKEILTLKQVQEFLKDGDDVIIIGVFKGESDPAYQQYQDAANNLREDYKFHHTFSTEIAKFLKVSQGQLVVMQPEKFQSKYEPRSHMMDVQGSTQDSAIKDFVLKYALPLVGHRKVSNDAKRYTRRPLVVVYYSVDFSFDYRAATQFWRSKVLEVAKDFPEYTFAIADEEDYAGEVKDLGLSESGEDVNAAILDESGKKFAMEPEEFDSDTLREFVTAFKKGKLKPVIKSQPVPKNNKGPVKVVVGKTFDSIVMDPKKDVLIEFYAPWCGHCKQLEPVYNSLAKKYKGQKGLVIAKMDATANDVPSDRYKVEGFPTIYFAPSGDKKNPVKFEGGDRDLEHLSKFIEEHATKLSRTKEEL
Description: as §1

[5] = molecular target: T5, abb′x fragment of PDI (Homo sapiens, UniProt P07237); experiment: Proteolysis assay with proteinase K
T5 construct: 1.25 μg of the abb′x fragment; His; made in house; host or cells: Escherichia coli Origami B (DE3), pET-15b
T5 sequence (P07237 18-368 limits assumed): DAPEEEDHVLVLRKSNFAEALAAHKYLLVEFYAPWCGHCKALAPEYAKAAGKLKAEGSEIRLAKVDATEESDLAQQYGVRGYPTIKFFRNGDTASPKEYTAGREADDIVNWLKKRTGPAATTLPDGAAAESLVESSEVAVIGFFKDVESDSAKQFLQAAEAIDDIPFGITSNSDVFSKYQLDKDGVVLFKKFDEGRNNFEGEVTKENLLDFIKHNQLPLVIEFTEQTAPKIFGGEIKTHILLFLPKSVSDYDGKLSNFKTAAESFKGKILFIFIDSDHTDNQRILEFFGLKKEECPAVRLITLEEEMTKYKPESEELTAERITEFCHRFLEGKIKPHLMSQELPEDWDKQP
Description: Proteinase K (2 μg/mL) was incubated with 1.25 μg of the abb′x fragment in 50 mM Tris-HCl containing 5 mM CaCl2 and 10 mM DTT. Reactions were aborted with the addition of 0.5 mM phenylmethanesulfonyl fluoride (PMSF). Subsequently, samples were subjected to Laemmli Sample buffer with 5% β-mercaptoethanol and heated at 95° C. for 10 minutes. Each sample was loaded on a 12% SDS-PAGE gel, followed by silver staining using the Pierce Silver Stain Kit (Thermo Scientific).

T1 sequence (P07237 236-479): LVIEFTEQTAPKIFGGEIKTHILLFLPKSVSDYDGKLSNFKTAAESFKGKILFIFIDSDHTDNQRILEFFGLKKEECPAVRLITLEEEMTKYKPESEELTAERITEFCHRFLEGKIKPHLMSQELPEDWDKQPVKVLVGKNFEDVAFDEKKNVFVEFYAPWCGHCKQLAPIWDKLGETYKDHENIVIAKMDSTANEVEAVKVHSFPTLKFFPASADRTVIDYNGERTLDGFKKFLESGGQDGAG

## CCOC(=O)c1c(CNCCN(CC)CC)n(-c2ccccc2)c2cc(Br)c(O)cc12 [bepristat 2a]
[1]
  di-eosin-GSSG cleavage by b′xa′ fragment: significantly augmented the catalytic activity
[2]
  cleavage of di-eosin-GSSG by ERp5 (catalytic activity): did not augment activity
[3]
  cleavage of di-eosin-GSSG by ERp57 (catalytic activity): did not augment activity
[4]
  cleavage of di-eosin-GSSG by ERp72 (catalytic activity): did not augment activity
[5]; control, not shown
  proteinase K activity (cleavage of ERp5): did not interfere with proteinase K activity
[5]; presence versus absence of compound, FIG. 5b
  cleavage of abb′x by proteinase K: occurred more rapidly
